Source: patent US20220324912A1, “THERAPEUTIC PEPTIDES” (COHBAR, INC., priority 2019, published 2022)
Residues, ends and D or L forms follow the SMILES beside them.

Columns and labels:
MDA-MB-231 cells = experiment: Cell viability, MTS Assay in MDA-MB-231 Cells; assay type: cell-based; conditions: human, 72 hours
Method: Test compounds and reference compound staurosporine (Selleckchem) were all dissolved with DMSO at 10 mM stock. […] Activity was calculated relative to DMSO control. […] Cell viability was 3% of the DMSO control value for Staurosporine (10 uM).

MCF-7 cells = conditions: human, 72 hours, 10 μM
Method: Peptides and reference compound staurosporine (Selleckchem) were dissolved with DMSO at 10 mM stock. CellTiter 96® AQueous One Solution Reagent (MTS assay reagent) was purchased from Promega (Madison, Wis.). MCF-7 human breast cancer cell line was purchased from American Type Culture Collection (Manassas, Va.). MCF-7 cells were grown in EMEM Medium supplemented with 10% FBS and 0.01 mg/ml human recombinant insulin. 100 μg/ml penicillin and 100 μg/ml streptomycin were added to the culture medium. Cells were incubated with test peptides at 10 μM at 37° C. in a humidified atmosphere of 5% CO2 and 95% air for 72 hours. 5 μl of CellTiter 96® AQueous One Solution Reagent (MTS assay reagent) was added to each well and incubated at 37° C., 5% CO2 for 5 hours. Absorbance at 492 nm was recorded by Envision 2104 Multilabel Reader. Treatment with DMSO alone was used as the cell viability activity control.

[1] = tested on: Caspase 3/7 in MDA-MB-231 cells; experiment: Caspase 3/7 Activity in MDA-MB-231 Cells (Caspase-Glo 3/7); assay type: cell-based, human; conditions: for Caspase 3/7 activity, Percent of Control Activity: peptides 10 μM, 18 hours, relative to DMSO control
Method: The effect of the peptides on cell death/survival can be assessed using a caspase-3 assay. Peptides were dissolved with DMSO at 10 mM stock. […] Staurosporine (Selleckchem) was dissolved with DMSO at 1 mM stock. Caspase-Glo 3/7 Assay Reagent was purchased from Promega (Madison, Wis.). MDA-MB-231 human breast cancer cell line was purchased from American Type Culture Collection (Manassas, Va.). MDA-MB-231 cells were grown in DMEM Medium supplemented with 10% FBS. 100 μg/ml penicillin and 100 μg/ml streptomycin were added to the culture medium. Cultures were maintained at 37° C. in a humidified atmosphere of 5% CO2 and 95% air. MDA-MB-231 cells were incubated with test peptides in duplicate at 10 μM at 37° C. in a humidified atmosphere of 5% CO2 and 95% air for 18 hours. 25 μl of Caspase-Glo 3/7 Assay Reagent was added to each well and incubated at 37° C., 5% CO2 for 1 hour. Luminescence for each sample well on the plate was measured by Envision 2104 Multilabel Reader (PerkinElmer, Santa Clara, Calif.). Activity was calculated relative to DMSO control.

3T3-L1 adipocytes = experiment: Free Fatty Acid Levels in 3T3-L1 Adipocytes (Example 4, 25 μM); assay type: cell-based, mouse; conditions: peptides 25 μM, 20-22 hours then 3 hours with isoproterenol 1 nM, 3T3-L1 adipocytes
Method: Following 12-15 days' differentiation, test peptides were added to a final concentration of 25 μM and incubated for 20-22 hours in Adipocyte Maintenance Medium. After 20-22 hours, isoproterenol (1 nM) was added to all wells except untreated controls and test peptides were replenished. Cells were incubated for a further 3 hours in Assay Buffer (Zen-Bio). Free fatty acid concentrations in the media were determined using a Free Fatty Acid Assay Kit (Zen-Bio) according to the manufacturer's instructions using a plate reader (540 nm). Absorbance values were corrected for untreated background and expressed relative to isoproterenol treated cells. Treatment with isoproterenol (1 nM) alone was used as the free fatty acid level stimulatory control. The relative standard deviation of the isoproterenol control was <10%. […] Free fatty acid levels for insulin (100 nM) treatment were <5% of the isoproterenol control value.

[2] = Stability in Mouse Plasma; assay type: in vitro ADME; conditions: pooled mouse plasma, 37° C., peptides 100 DM
Method: Peptides (100 DM) were incubated in pooled mouse plasma at 37° C. and samples were removed and immediately analyzed for the concentration of intact peptide by LC/MS/MS over the course of 3 hours. The percent of peptide remaining in plasma at each time point was calculated relative to the initial peak area (Table 9).

| Compound | MTS cell viability, Percent of Control Activity (MDA-MB-231 cells) [%] | MTS cell viability, Percent of Control Activity (MCF-7 cells) [%] | Caspase 3/7 activity, Percent of Control Activity [1] [%] | Free fatty acid levels, Percent of Control Value (percent isoproterenol control) (3T3-L1 adipocytes) [%] | % Remaining at 0 min ([2]; 0 min) [%] | remaining at 0.25 h, 100 DM ([2]; 15 min) [%] | remaining at 0.5 h, 100 DM ([2]; 30 min) [%] | remaining at 1 h, 100 DM ([2]; 60 min) [%] | remaining at 2 h, 100 DM ([2]; 120 min) [%] | remaining at 3 h, 100 DM ([2]; 180 min) [%] | Caspase activity, % of background-corrected DMSO control value ([1]; staurosporine 0.05 nM) [%] |
| --- | --- | --- | --- | --- | --- | --- | --- | --- | --- | --- | --- |
| CC[C@H](C)[C@H](NC(=O)[C@H](C)NC(=O)[C@H](Cc1c[nH]c2ccccc12)NC(=O)[C@@H](N)CCSC)C(=O)N[C@@H](CC(=O)O)C(=O)N[C@@H](CCC(=O)O)C(=O)N[C@@H](CCCCN)C(=O)N[C@@H](C)C(=O)N[C@H](C(=O)N[C@@H](CCC(=O)O)C(=O)N[C@@H](C)C(=O)N[C@@H](CO)C(=O)NCC(=O)N[C@@H](CCC(=O)O)C(=O)O)C(C)C [compound 30] (H-MWAIDEKAVEASGE-OH; N-terminus and C-terminus assumed) | 76 | 61 | 50 | 85 |  |  |  |  |  |  |  |
| CC[C@H](C)[C@H](NC(=O)CNC(=O)[C@H](CCC(=O)O)NC(=O)[C@H](CCCNC(=N)N)NC(=O)CNC(=O)[C@H](Cc1c[nH]c2ccccc12)NC(=O)[C@@H]1CCCN1C(=O)[C@H](Cc1c[nH]cn1)NC(=O)CNC(=O)CNC(=O)[C@H](CCC(=O)O)NC(=O)[C@H](CO)NC(=O)[C@H](CC(C)C)NC(=O)[C@@H]1CCCN1C(=O)CNC(=O)[C@H](CCCCN)NC(=O)[C@@H](NC(=O)[C@@H](NC(=O)[C@@H](N)CCSC)C(C)C)C(C)C)C(=O)O [compound 25] (H-MVVKGPLSEGGHPWGREGI-OH; N-terminus and C-terminus assumed) | 76 | 40 | 46 | 61 |  |  |  |  |  |  |  |
| CC[C@H](C)[C@H](NC(=O)[C@H](C)NC(=O)[C@H](CO)NC(=O)CNC(=O)[C@@H]1CCCN1C(=O)[C@H](CC(C)C)NC(=O)[C@H](CCCNC(=N)N)NC(=O)[C@@H](N)CCSC)C(=O)N[C@@H](CC(C)C)C(=O)N[C@H](C(=O)N[C@@H](CC(N)=O)C(=O)N1CCC[C@H]1C(=O)N[C@H](C(=O)N[C@@H](CC(C)C)C(=O)NCC(=O)N[C@@H](Cc1c[nH]c2ccccc12)C(=O)N[C@H](C(=O)N[C@@H](Cc1c[nH]c2ccccc12)C(=O)N[C@H](C(=O)O)C(C)C)C(C)C)C(C)C)[C@@H](C)O [compound 7] (H-MRLPGSAILTNPVLGWVWV-OH) | 88 | 64 |  |  | 100 | 70.9 | 68.2 | 52.6 | 31.6 | 18.1 |  |
| CC[C@H](C)[C@H](NC(=O)[C@H](C)NC(=O)[C@H](CCCNC(=N)N)NC(=O)[C@H](C)NC(=O)[C@@H](NC(=O)[C@H](CCCNC(=N)N)NC(=O)[C@H](CCCNC(=N)N)NC(=O)[C@@H](NC(=O)[C@H](C)NC(=O)[C@H](CC(C)C)NC(=O)[C@@H](N)CCSC)C(C)C)[C@@H](C)O)C(=O)NCC(=O)O [compound 2] (H-MLAVRRTARAIG-OH; N-terminus and C-terminus assumed) | 78 | 39 | 71 | 76 |  |  |  |  |  |  |  |
| CSCC[C@H](N)C(=O)N[C@H](C(=O)N[C@@H](Cc1ccccc1)C(=O)N[C@@H](CCC(N)=O)C(=O)N[C@@H](CCCCN)C(=O)N[C@H](C(=O)N[C@@H](Cc1c[nH]cn1)C(=O)N[C@@H](CC(N)=O)C(=O)N[C@@H](CC(C)C)C(=O)N[C@@H](CC(N)=O)C(=O)N[C@@H](CCC(N)=O)C(=O)N[C@@H](Cc1c[nH]cn1)C(=O)N[C@@H](CC(N)=O)C(=O)N[C@@H](Cc1c[nH]cn1)C(=O)N1CCC[C@H]1C(=O)N[C@@H](CCC(N)=O)C(=O)N1CCC[C@H]1C(=O)N[C@@H](CC(N)=O)C(=O)N[C@@H](Cc1ccc(O)cc1)C(=O)O)[C@@H](C)O)[C@@H](C)O [compound 20] (H-MTFQKTHNLNQHNHPQPNY-OH; N-terminus and C-terminus assumed) | 85 | 63 | 58 | 71 |  |  |  |  |  |  |  |
| CN[C@@H]1C[C@H]2O[C@@](C)([C@@H]1OC)n1c3ccccc3c3c4c(c5c6ccccc6n2c5c31)C(=O)NC4 [staurosporine, reference compound] |  |  |  |  |  |  |  |  |  |  | 130 |
